Values joined by “and” are separate entries in the source; they are usually repeats but may differ in a detail not shown here. Equal entries are not always repeated. Structures can show the parent of a compound that is named as a salt.
What was measured:
HCT116 [1] = test: AC50 cell viability (CellTiter-Glo); higher = less potent; conditions: 48 h
HCT116 [2] = test: efficacy (fitted maximal change in viability relative to DMSO control); higher = less cytotoxic (negative = loss of viability); conditions: 48 h
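Throughout, for AC50 cell viability (CellTiter-Glo): HCT116 colorectal carcinoma cells screened at five concentrations per compound, luminescent viability scaled between DMSO wells and empty wells on each plate, curves fitted per compound.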
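Throughout, for efficacy (fitted maximal change in viability relative to DMSO control): Luminescence-based viability readout, five doses per compound, normalized against on-plate DMSO and empty-well controls, followed by dose-response curve fitting for every drug.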

SMILES | AC50 cell viability (HCT116 [1]) | efficacy (HCT116 [2])
CC(C)NCCCn1c(Sc2cc(Cl)cc(Cl)c2)nc2c(N)ncnc21 [PU-WS-13] | 20.9 µM | -82.4%
CCC(C)SSc1ncc[nH]1 (stereo unspecified) [PX-12] | 18.6 µM | -88.8%
COC1=CC=C2Nc3cc(Cl)ccc3C(N=C3C=C(CN4CCCC4)C(=O)C(CN4CCCC4)=C3)=C2N1 [PYRONARIDINE TETRAPHOSPHATE] | 9.34 µM | -76.4%
C1=CC2=N/C(=N\c3ccc(OCCN4CCCC4)c(c3)COC/C=C/COCc3cccc2c3)N1 [Pacritinib] | 1.86 µM | -89.9%
CC(=O)C\1=C(/C)C2=CN=C(NC3=CC=C(C=N3)N4CCNCC4)N=C2N(C5CCCC5)C1=O [Palbociclib] | 16.6 µM | -109%
Cc1[nH]c2ccccc2c1CCNCc1ccc(/C=C/C(=O)NO)cc1 [Panobinostat] | 0.0468 µM | -87.7%
COc1ccc(Cc2nccc3cc(OC)c(OC)cc23)cc1OC [Papaverine hydrochloride] | 4.17 µM | -61.1%
CCCCc1ccc2[nH]c(NC(=O)OC)nc2c1 [Parbendazole] | 0.105 µM | -63.1%
[2H]C([2H])([2H])C(O)([C@@H](C)/C=C/[C@@H](C)[C@H]1CC[C@H]2/C(=C/C=C3C[C@@H](O)C[C@H](O)C3)CCC[C@]12C)C([2H])([2H])[2H] [Paricalcitol-D6 (ABT-358)] | 18.6 µM | -54%
ClC1=CC=C(CCCOC/2=N/NC(=O)C(=C2NCC3=CN=CC=C3)/Br)C=C1 [Parogrelil] | 18.6 µM | -86.2%
C=C1C(=O)O[C@@H]2[C@H]3O[C@]3(C)CC/C=C(\C)CC[C@@H]12 [Parthenolide] | 13.2 µM | -97.4%
C[C@@H]1CN[C@H]2[C@@H](C)[C@@]3(CC[C@H]4[C@@H]5CC[C@@H]6C[C@@H](CC[C@]6(C)[C@H]5C\C4=C(C)\C3)N[S+](C)([O-])=O)O[C@@H]2C1 [Patidegib] | 14.8 µM | -94.4%
Cc1ccc(Nc2nccc(N(C)c3ccc4c(C)n(C)nc4c3)n2)cc1[S+](N)(=O)[O-] [Pazopanib] | 5.25 µM | -51.5%
NC(=O)c1cnc2[nH]ccc2c1NC1C2CC3C[C@H]1CC(O)(C3)C2 (stereo partly specified) [Peficitinib] | 7.42 µM | -67.2%
CCOc1cc2ncc(C#N)c(Nc3ccc(F)c(Cl)c3)c2cc1NC(=O)/C=C/CN(C)C [Pelitinib] | 5.9 µM | -97.7%
NC/1=N/C(=O)C2=C([NH]C=C2CCC3=CC=C(C=C3)C(=O)N[C@@H](CCC(O)=O)C(O)=O)N1 [Pemetrexed] | 0.742 µM | -40.7%
N=C(N)c1ccc(OCCCCCOc2ccc(C(=N)N)cc2)cc1 [Pentamidine isethionate] | 20.9 µM | -54.5%
C1CCC(C(CC2CCCCN2)C2CCCCC2)CC1 (stereo unspecified) [Perhexiline] | 6.61 µM | -92.2%
Cc1ccc(-n2nc(C(C)(C)C)cc2N/C(O)=N/Cc2cc(F)ccc2Oc2ccc3c(cnn3CCO)c2)cc1 [Pexmetinib] | 10.5 µM | -98.4%
N=C(N)NC(=N)NCCc1ccccc1 [Phenformin hydrochloride] | 13.2 µM | -38.6%

SMILES | AC50 cell viability (HCT116 [1]) | efficacy (HCT116 [2])
CC1=CC=C(C=C1)N(C\C2=N\CCN2)C3=CC=CC(=C3)O [Phentolamine mesilate] | 20.9 µM | -60%
Oc1cc(O)cc(/C=C/c2ccc(O)c(O)c2)c1 [Piceatannol] | 26.3 µM | -69%
CC\1=C/C=C\C=[N]1[Pt](N)(Cl)Cl [Picoplatin] | 20.9 µM | -50.8%
COc1cc([C@@H]2c3cc4c(cc3[C@H](O)[C@H]3COC(=O)[C@@H]23)OCO4)cc(OC)c1OC [Picropodophyllin] | 0.417 µM | -56.6%
C[S+](=O)([O-])N1CCN(Cc2cc3nc(-c4cccc5[nH]ncc45)nc(N4CCOCC4)c3s2)CC1 [Pictilisib] | 3.32 µM | -78.3%
COc1ccc(Cl)c(Nc2nc3ccccc3nc2N[S+](=O)([O-])c2cccc(NC(=O)C(C)(C)N)c2)c1 [Pilaralisib] | 16.6 µM | -39.5%
O=C(NC[C@H](O)CO)c1ccncc1Nc1ccc(I)cc1F [Pimasertib] | 0.118 µM | -44.3%
COC1=CC=C(C=C1)C2=NC3=CC(=CC=C3[NH]2)/C4=N/NC(=O)CC4C (stereo unspecified) [Pimobendan] | 9.34 µM | -48.6%
c1ccc(-c2cc(CCC3CCNCC3)c3ccccc3n2)cc1 [Pipequaline] | 16.6 µM | -108%
O=C(/C=C/C=C/c1ccc2c(c1)OCO2)N1CCCCC1 [Piperine] | 20.9 µM | -46%
COc1cccc2c1C(=O)c1c(O)c3c(c(O)c1C2=O)C[C@@](O)(C(=O)CO)C[C@@H]3O[C@H]1C[C@H](N)[C@H](O[C@H]2CCCCO2)[C@H](C)O1 [Pirarubicin] | 0.934 µM and 0.468 µM | -90.5% and -67.3%
O=C([O-])C[C@H](O)C[C@H](O)/C=C/c1c(C2CC2)nc2ccccc2c1-c1ccc(F)cc1 [Pitavastatin calcium] | 14.8 µM | -103%
CN1CC/C(CC1)=C3\c4ccccc4CCc2sccc23 [Pizotifen] | 23.5 µM | -73.5%
CC(C)(C)c1[nH]cnc1/C=c1\[nH]c(=O)/c(=C/c2ccccc2)[nH]c1=O [Plinabulin] | 0.0525 µM | -58.4%
Cc1cc(Nc2ncc3c(n2)N(C)C(=O)N(c2cc(NC(=O)c4cccc(C(F)(F)F)c4)ccc2C)C3)n(C)n1 [Pluripotin] | 0.235 µM | -74%
CC[C@@H]([C@H](C)O)N1\N=C/N(C1=O)C2=CC=C(C=C2)N3CCN(CC3)C4=CC=C(OCC5CO[C@@](C5)(C[N]6C=NC=N6)C7=C(F)C=C(F)C=C7)C=C4 (stereo partly specified) [Posaconazole] | 6.61 µM | -58.4%
C=CC(=O)N1CCC(Oc2cc3c(Nc4ccc(Cl)c(Cl)c4F)ncnc3cc2OC)CC1 [Poziotinib] | 18.6 µM | -106%
CCCCc1nc2cc(/C=C/C(=O)NO)ccc2n1CCN(CC)CC [Pracinostat] | 0.372 µM | -86.8%
C#CCC(Cc1cnc2nc(N)nc(N)c2n1)c1ccc(C(=O)N[C@@H](CCC(=O)O)C(=O)O)cc1 (stereo partly specified) [Pralatrexate] | 0.00468 µM | -91.1%
COc1ccc(C(=O)c2c(C)n(CCN3CCOCC3)c3ccccc23)cc1 [Pravadoline] | 1.32 µM | -67.1%

SMILES | AC50 cell viability (HCT116 [1]) | efficacy (HCT116 [2])
COc1cccc(OCCCN)c1-c1cc(Nc2cnc(C#N)cn2)n[nH]1 [Prexasertib] | 3.72 µM | -111%
CC(=O)C1CCC2C3CC\C4=C\C(=O)CCC4(C)C3CCC12C (stereo unspecified) [Progesterone] | 16.6 µM | -53.8%
C[C@@H]1O[C@@H](O[C@@H]2C=C3CC[C@@H]4[C@H](CC[C@]5(C)[C@@H](c6ccc(=O)oc6)CC[C@]45O)[C@@]3(C)CC2)[C@H](O)[C@H](O)[C@H]1O [Proscillaridin] | 0.00833 µM | -82.5%
c1ccc2c(Oc3nc(Nc4ccc(N5CCOCC5)cc4)c4ncn(C5CCCCC5)c4n3)cccc2c1 [Purmorphamine] | 11.8 µM | -34.8%
CC(C)[C@H](CO)Nc1nc(Nc2cccc(Cl)c2)c2ncn(C(C)C)c2n1 [Purvalanol A] | 13.2 µM | -110%
NCCOc1cc(C(=O)Nc2cc(OCCN)c3ccccc3n2)nc(C(=O)Nc2cc(OCCN)c3ccccc3n2)c1 [Pyridostatin] | 18.6 µM | -78.9%
CCc1nc(N)nc(N)c1-c1ccc(Cl)cc1 [Pyrimethamine] | 3.32 µM | -88.5%
O=C(CCCCCCC(=O)Nc1cccnc1)NO [Pyroxamide] | 2.95 µM | -87.9%
OC[C@H](Cc1ccccc1)Nc1nc(Oc2ccc3c(c2)CCC3)nc2c1ncn2Cc1ccc(-c2ccccc2)cc1 [QS11] | 9.34 µM | -49.7%
CCN(CC)CCCC(C)Nc1c2ccc(Cl)cc2nc2ccc(OC)cc12.Cl.Cl.O.O (stereo unspecified) [Quinacrine] | 8.33 µM | -90.5%
Cn1cc(CNCC2CCN(c3ncc(C(=O)NO)cn3)CC2)c2ccccc21 [Quisinostat] | 0.0742 µM | -81.9%
CC(C)(C)c1cc(NC(=O)Nc2ccc(-c3cn4c(n3)sc3cc(OCCN5CCOCC5)ccc34)cc2)no1 [Quizartinib] | 13.2 µM | -74.1%
COc1cc(Nc2ncc(F)c(Nc3ccc4c(n3)NC(=O)C(C)(C)O4)n2)cc(OC)c1OC [R-406] | 3.72 µM | -30.6%
COc1ccc(F)c(F)c1C(=O)c1cnc(NC2CCN([S+](C)(=O)[O-])CC2)nc1N [R-547] | 0.417 µM | -67.8%
COC1=C(F)C=C\2C(=C1)\N=C/3NNC(=C3\N=C2C4=CC=CC=C4Cl)/C [R-1530] | 14.8 µM | -73.2%
FC(F)(F)c1ccc(Nc2nc3cc(Oc4ccnc(-c5ncc(C(F)(F)F)[nH]5)c4)ccc3[nH]2)cc1 [RAF-265 derivative] | 14.8 µM | -84.8%
Cc1ncc(NC(=O)c2cccc(C(F)(F)F)c2)cc1-c1cnc(OC2CCOCC2)c(N2CCOCC2)c1 [RAF-709] | 0.525 µM | -84.5%
Cc1cc(Nc2cc(NC(=O)c3c(Cl)cccc3Cl)ccn2)nc(N)n1 [RO495] | 1.18 µM | -74.4%

From the supplement of paper PMC10290057
